In patent publication US4804502A, “Vitamin D compounds” (priority 1988, dated 1989):

What was measured:
[1] = system: bone calcium mobilization; test: Bone Calcium Mobilization in Rat (plasma Ca increase); assay type: in vivo; details: intrajugular, 18 h
Description: Controls received carrier alone. Bone Ca resorption (BCR) was estimated by measuring the blood Ca increase in the treated rats. Blood was collected in heparinized tubes and centrifuged. The resulting plasma was measured for calcium concentration by atomic absorption spectroscopy. Since rats were fed a diet essentially devoid of Ca, plasma Ca increases reflected mobilization of Ca from bone, not intestinal Ca absorption.

[2] = target: T1, 1,25-(OH)2 D3 receptors (rat intestine) (Rattus norvegicus, UniProt P13053); test: Competitive Binding to 1,25-(OH)2 D3 Intestine Receptors, rat; details: a/b×100 from amounts displacing 50% of 1,25-(OH)2[3H]D3
T1 construct: receptor prepared from intestine of chick, rat and calf; from tissue; host or cells: rat proximal small-intestine mucosa, cytosol, 35% ammonium sulphate precipitate
T1 sequence (P13053 1-423): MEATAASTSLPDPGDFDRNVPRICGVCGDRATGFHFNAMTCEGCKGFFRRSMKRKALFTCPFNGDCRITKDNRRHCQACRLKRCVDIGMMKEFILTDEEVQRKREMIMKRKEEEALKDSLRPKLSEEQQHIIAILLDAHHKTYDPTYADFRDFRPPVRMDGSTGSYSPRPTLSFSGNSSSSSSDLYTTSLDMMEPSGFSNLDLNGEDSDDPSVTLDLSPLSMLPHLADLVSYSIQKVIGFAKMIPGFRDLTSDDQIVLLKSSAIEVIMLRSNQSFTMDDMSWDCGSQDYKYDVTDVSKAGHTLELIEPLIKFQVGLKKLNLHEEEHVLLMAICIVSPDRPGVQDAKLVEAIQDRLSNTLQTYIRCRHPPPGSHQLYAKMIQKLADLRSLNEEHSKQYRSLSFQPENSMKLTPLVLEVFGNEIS
Description: (§1) The ability of vitamin D3 metabolites to compete for 1,25-(OH)[^3 H]D3 receptor binding sites was evaluated with receptor prepared from intestine of chick, rat and calf. The receptor was prepared by removing 10-12% of the small intestine immediately adjacent to the pyloric spincter which was washed immediately with cold buffer containing 500 mM KCl, 50 mM Tris, 1.5 mM EDTA, and 5 mM dithiothreitol, pH 7.4 (KTED buffer). Mucosa was collected and washed three times with 10 volumes of cold KTED buffer. The washed mucosa was homogenized in KTED buffer (20% w/v) using a Polytron Pt20 tissue disruptor. Cytosol was prepared by centrifugation of the homogenized mucosa at 300,000×g for 1 hour. Receptor was precipitated from the cytosol by the addition of ammonium sulphate to achieve 35% saturation. The ammonium sulphate treated cytosol was centrifuged at 20,000×g for 10 minutes. The supernatant was discarded and the pellet lyophilized and stored at […] Prior to binding assay the pellet was resuspended in cold binding assay buffer containing 150 mM KCl, 50 mM NaPO4, 1.5 mM EDTA and 5 mM dithiothreitol.

[3] = target: T2, 1,25-(OH)2 D3 receptors (chick intestine) (Gallus gallus, UniProt O42392); test: Competitive Binding to 1,25-(OH)2 D3 Intestine Receptors, chick; details: a/b×100 from amounts displacing 50% of 1,25-(OH)2[3H]D3
T2 construct: receptor prepared from intestine of chick, rat and calf; from tissue; host or cells: chick proximal small-intestine mucosa, cytosol, 35% ammonium sulphate precipitate
T2 sequence (O42392 1-451): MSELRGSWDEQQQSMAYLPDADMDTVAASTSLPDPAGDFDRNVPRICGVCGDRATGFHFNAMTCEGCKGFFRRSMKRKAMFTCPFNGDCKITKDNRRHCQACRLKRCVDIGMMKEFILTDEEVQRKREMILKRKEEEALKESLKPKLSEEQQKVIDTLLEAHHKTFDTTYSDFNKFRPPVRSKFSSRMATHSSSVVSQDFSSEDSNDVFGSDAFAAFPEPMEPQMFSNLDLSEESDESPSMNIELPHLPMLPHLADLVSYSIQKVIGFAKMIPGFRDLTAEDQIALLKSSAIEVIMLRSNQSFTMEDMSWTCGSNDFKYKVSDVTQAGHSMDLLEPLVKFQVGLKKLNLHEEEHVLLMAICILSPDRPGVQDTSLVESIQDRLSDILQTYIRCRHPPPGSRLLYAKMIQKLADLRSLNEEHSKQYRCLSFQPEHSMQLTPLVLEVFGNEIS
Description: as §1, with “The receptor was prepared by removing 10-12% of the small intestine immediately adjacent to the pyloric spincter which was washed immediately with cold buffer containing 500 mM KCl, 50 mM Tris, 1.5 mM EDTA, and 5 mM dithiothreitol, pH 7.4 (KTED buffer).” left out, “Receptor was precipitated from the cytosol by the addition of ammonium sulphate to achieve 35% saturation.” left out

[4] = target: T3, 1,25-(OH)2 D3 receptors (calf intestine) (Bos taurus, UniProt Q28037); test: Competitive Binding to 1,25-(OH)2 D3 Intestine Receptors, calf; details: a/b×100 from amounts displacing 50% of 1,25-(OH)2[3H]D3
T3 construct: receptor prepared from intestine of chick, rat and calf; from tissue; host or cells: calf proximal small-intestine mucosa, cytosol, 35% ammonium sulphate precipitate
T3 sequence (Q28037 1-426): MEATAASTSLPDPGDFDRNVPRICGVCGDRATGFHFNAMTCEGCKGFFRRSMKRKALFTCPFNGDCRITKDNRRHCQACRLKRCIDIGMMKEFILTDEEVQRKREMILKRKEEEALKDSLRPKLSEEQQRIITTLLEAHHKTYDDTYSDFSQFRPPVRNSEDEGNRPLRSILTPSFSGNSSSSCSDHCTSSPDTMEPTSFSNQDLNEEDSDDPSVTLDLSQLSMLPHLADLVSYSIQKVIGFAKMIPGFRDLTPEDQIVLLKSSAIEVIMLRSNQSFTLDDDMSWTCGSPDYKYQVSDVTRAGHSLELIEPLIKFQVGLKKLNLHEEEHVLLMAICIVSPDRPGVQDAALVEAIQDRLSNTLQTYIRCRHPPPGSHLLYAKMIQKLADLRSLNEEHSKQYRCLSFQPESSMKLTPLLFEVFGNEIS
Description: as §1, with “The receptor was prepared by removing 10-12% of the small intestine immediately adjacent to the pyloric spincter which was washed immediately with cold buffer containing 500 mM KCl, 50 mM Tris, 1.5 mM EDTA, and 5 mM dithiothreitol, pH 7.4 (KTED buffer).” left out, “Receptor was precipitated from the cytosol by the addition of ammonium sulphate to achieve 35% saturation.” left out

[5] = system: intestinal calcium absorption (duodenum); test: Stimulation of Intestinal Calcium Absorption in Rat (intestinal 45Ca transport, everted gut sac); details: intrajugular, 18 h

| SMILES | % of 1,25-(OH)2 D3 Effect in Rat, bone calcium mobilization ([1]; 15.5 ng/rat) [%] | Competitive Binding to 1,25-(OH)2 D3 Receptors - % of 1,25-(OH)2 D3 Effect, rat intestine [2] [%] | Competitive Binding to 1,25-(OH)2 D3 Receptors - % of 1,25-(OH)2 D3 Effect, chick intestine [3] [%] | Competitive Binding to 1,25-(OH)2 D3 Receptors - % of 1,25-(OH)2 D3 Effect, calf intestine [4] [%] | % of 1,25-(OH)2 D3 Effect in Rat, intestinal calcium absorption ([5]; 15.5 ng/rat) [%] | % of 1,25-(OH)2 D3 Effect in Rat, bone calcium mobilization ([1]; 12.5 ng/rat) [%] | % of 1,25-(OH)2 D3 Effect in Rat, intestinal calcium absorption ([5]; 12.5 ng/rat) [%] |
| --- | --- | --- | --- | --- | --- | --- | --- |
| C=C1/C(=C\C=C2/CCC[C@]3(C)[C@@H]([C@H](C)CC#CC(C)(C)O)CC[C@@H]23)C[C@@H](O)C[C@@H]1O [Compound A, 1α,25-dihydroxy-23-yne-cholecalciferol] | 15 | 39 | 60 | 47 | 95 |  |  |
| C=C1/C(=C\C=C2/CCC[C@]3(C)[C@@H]([C@H](C)CC#CC(O)(C(F)(F)F)C(F)(F)F)CC[C@@H]23)C[C@@H](O)C[C@@H]1O [Compound B] |  | 142 | 47 | 62 |  | 0 | 124 |
